No end group written: not given here.
What was measured:
[1] = tested on: cancer cells; experiment: Confocal microscopy of peptide localisation; format: cell-based; details: 1 μM, 1 hour
Protocol: (§1) Figure 8 PS-Gp130 and PS-MYC blocking peptides efficiently internalize into tumor cells to exert their functions. (A) For 1 hour 1 μM of PS-conjugated MYC (PS-MYC) and Gp130 (PS-Gp130) were incubated with cancer cells. PS-scramble MYC (PS-SC-MYC) was used as a control for PS-MYC. The peptide uptake was visualized by confocal microscopy and quantified by flow cytometry. Data are representative of 3 independent experiments (n = 3). (B) Upper panel: The binding of PS-Gp130 and STAT3 was examined by immunoprecipitation and Western blotting. PO-Gp130 was used as a control. For 4 hours prior to harvest, 1 μM of peptide was incubated with cells. Lower panel: PS-Gp130 inhibits IL-6–induced phosphorylation of STAT3 and p44/42 but not EGF-mediated signaling. The cells were preincubated with PS-Gp130 for 2 hours and then stimulated with 20 ng/mL of IL-6 or 30 ng/mL of EGF for 30 minutes before harvest and Western blotting. (C) Gene expression of STAT3 targets was examined by quantitative PCR after the treatment with 1 μM of PS-Gp130 with or without IL-6 stimulation as described above. Data shown are 3 independent experiments (n = 3); SD is shown. Unpaired Student’s t test; ***P < 0.005; **P < 0.01; *P < 0.05. (D) A total of 1 μM of PS-SC-MYC or PS-MYC was incubated with cells for 48 hours before the gene expression of MYC targets was examined by quantitative PCR. […]

[2] = tested on: MYC target genes; experiment: Gene expression of MYC targets by quantitative PCR; format: cell-based; details: 1 μM, 48 hours, n = 3
Protocol: as §1, with “Lower panel: PS-Gp130 inhibits IL-6–induced phosphorylation of STAT3 and p44/42 but not EGF-mediated signaling. The cells were preincubated with PS-Gp130 for 2 hours and then stimulated with 20 ng/mL of IL-6 or 30 ng/mL of EGF for 30 minutes before harvest and Western blotting.” left out, “Data shown are 3 independent experiments (n = 3); SD is shown. Unpaired Student’s t test; ***P < 0.005; **P < 0.01; *P < 0.05.” left out
Total RNA was extracted from cultured or tumor tissues using RNeasy kit (QIAGEN), according to manufacturer’s instruction. After cDNA synthesis using iScript cDNA Synthesis kit (Bio-Rad), samples were analyzed using pairs of primers specific for CASP9, CASP3, CASP8, BIRC5, BCL2L1, MYC, TP53, VEGF, IL1B, SERPIN3, FGA, CDK4, CCND2, CDKN2A, CDKN2B, GADD45A, mCD274, mMmp9, and mBirc5, as indicated. […]

[3] = mouse, in vivo
Protocol: Supplemental Figure 10 (related to Figure 3). The systemic toxicity of PS-acet.-peptide.
The bodyweight (A), blood count (B) and organ morphology (H&E staining; spleen, kidney and liver) (C) of the mice (n=3) treated with HBSS (1), PS-oligo (2), naïve peptide (3), PO-peptide (4) or PS-peptide (5) every other day at 1 mg/kg (per treatment) for 3 weeks.
Individual value of each mouse is shown as a dot on the graph. The red lines on each graph in (B) indicate the normal ranges. Blood count was done by a veterinary hematology analyzer. The images shown in (C) are the represented H&E section from three mice (n=3). Enlarged view are shown below as indicated. Scale bar, 50 µm.
Aftabizadeh and Li et al., Figure S10
Supplemental Figure 12 (related to Figure 6).
(A) Amino acid sequences of phosphorothioated (*, PS) DNA oligonucleotide-modified Gp130 (PS-Gp130), MYC (PS-MYC) and scrambled MYC (PS-SC-MYC) peptides. PS-Gp130 peptide spans 9 amino acids of Gp130 protein (amino acids […]). PS-MYC peptide contains 9 amino acids of Max protein (amino acids 77-85).
(B and C) The bodyweight (B, n=5) and blood count (C, n=3) of the mice in each treatment group was measured at the end point. Individual value of each mouse is shown as a dot on the graph. The red lines on each graph indicate the normal ranges.
Aftabizadeh and Li et al., Figure S12

PS-MYC: PS-conjugated peptide corresponding to leucine zipper segment of MAX (amino acids 77–85) (KNHTHQQDI; also: phosphorothioate oligonucleotide conjugate; UniProt P61244 77-85, looked up, fragment)
intracellular localisation / retention of peptide [1]: retained in the nucleus
expression of MYC-mediated cell cycle and survival genes [2]: markedly downregulated
expression of MYC-suppressed target genes [2]: upregulating
blood count (anemia) [3]: minor anemia

From publication PMC7934871 (JCI Insight, 2021)
